This note sets out measurements from ChEMBL document CHEMBL5724914, “Linking interpersonal differences in gut microbiota composition and drug biotransformation activity” (2024).

For series [1] the following is noted: human gut metagenome, 24 h, 2 µM.
For series [2] the following is noted: human gut metagenome, 24 h, 2 µM. The source holds these as a separate data set.
Series [3] can be described thus: The drug is tested on WLS-086 corresponding to human gut metagenome with ENA study accession number: PRJEB37062 and ENA sample accession number: ERS12561752 for biotransformation under anaerobic condition. The drug concentrations were measured over 9 timepoints collected between 0 and 24 hours of incubation by liquid-chromatography-coupled mass spectrometry (LC–MS). As to conditions: 2 µM.

Series [4] can be described thus: The drug is tested on WLS-007 corresponding to human gut metagenome with ENA study accession number: PRJEB37062 and ENA sample accession number: ERS12561742 for biotransformation under anaerobic condition. The drug concentrations were measured over 9 timepoints collected between 0 and 24 hours of incubation by liquid-chromatography-coupled mass spectrometry (LC–MS). As to conditions: 2 µM.

The conditions of series [5]: human gut metagenome, 24 h, 2 µM. The source holds these as a separate data set.
For series [6] the following is noted: human gut metagenome, 24 h, 2 µM. The source holds these as a separate data set.
For series [7] the following is noted: human gut metagenome, 24 h, 2 µM. The source holds these as a separate data set.
The conditions of series [8]: human gut metagenome, 24 h, 2 µM. The source holds these as a separate data set.
The nature of series [9]: The drug is tested on WLS-052 corresponding to human gut metagenome with ENA study accession number: PRJEB37062 and ENA sample accession number: ERS12561747 for biotransformation under anaerobic condition. The drug concentrations were measured over 9 timepoints collected between 0 and 24 hours of incubation by liquid-chromatography-coupled mass spectrometry (LC–MS). As to conditions: 2 µM.

Series [10] in a line: The drug is tested on WLS-077 corresponding to human gut metagenome with ENA study accession number: PRJEB37062 and ENA sample accession number: ERS12561750 for biotransformation under anaerobic condition. The drug concentrations were measured over 9 timepoints collected between 0 and 24 hours of incubation by liquid-chromatography-coupled mass spectrometry (LC–MS). As to conditions: 2 µM.

The conditions of series [11]: human gut metagenome, 24 h, 2 µM. This is another data set of the same source.
For series [12] the following is noted: human gut metagenome, 24 h, 2 µM. This is another data set of the same source.
The nature of series [13]: The drug is tested on Z-003 corresponding to pig gut metagenome with ENA study accession number: PRJEB37062 and ENA sample accession number: ERS12561803 for biotransformation under anaerobic condition. The drug concentrations were measured over 9 timepoints collected between 0 and 24 hours of incubation by liquid-chromatography-coupled mass spectrometry (LC–MS). As to conditions: 2 µM.
Note: call rule not given here.

Turning to `CNCC[C@H](Oc1cccc2ccccc12)c1cccs1` [DULOXETINE], the “Bacterial Biotransformation” value in [1] is on record as “Compound NOT metabolized”; in series [2] it was “Compound metabolized”; in series [3], “Compound NOT metabolized”; in series [4], “Compound metabolized”; in series [5], “Compound NOT metabolized”; in series [6], “Compound NOT metabolized”. Also, the “Bacterial Biotransformation” value in series [7] is recorded as “Compound metabolized”; in series [8] it was “Compound NOT metabolized”; in series [9], “Compound NOT metabolized”; in series [10], “Compound NOT metabolized”; in series [11] it was “Compound NOT metabolized”; in series [12] it was “Compound NOT metabolized”.

Regarding `CC#CCn1c(N2CCC[C@@H](N)C2)nc2c1c(=O)n(Cc1nc(C)c3ccccc3n1)c(=O)n2C` [LINAGLIPTIN], the “Bacterial Biotransformation” value in series [1], in series [2], in [3], in series [4], in series [5] and in series [6] was “Compound NOT metabolized” throughout. For the same molecule, the “Bacterial Biotransformation” value in series [7] was “Compound NOT metabolized”; in [8], “Compound NOT metabolized”; in [10], “Compound NOT metabolized”; in [12] it was “Compound metabolized”.

With `CCOC(=O)C1=C(C)NC(C)=C(C(=O)OC)C1c1cccc([N+](=O)[O-])c1` (stereo unspecified) [NITRENDIPINE], the “Bacterial Biotransformation” value in series [1] is listed as “Compound metabolized”; in series [2], “Compound metabolized”; in series [3], “Compound metabolized”; in series [4], “Compound NOT metabolized”; in [5], “Compound metabolized”; in [6] it was “Compound NOT metabolized”. The “Bacterial Biotransformation” value in [7], in [8], in [9], in [10], in series [11] and in series [12] was “Compound metabolized” each time.

As to `Cc1nc(Nc2ncc(C(=O)Nc3c(C)cccc3Cl)s2)cc(N2CCN(CCO)CC2)n1` [DASATINIB ANHYDROUS], the “Bacterial Biotransformation” value is listed as “Compound metabolized” in series [1]; “Compound metabolized” in series [2]; “Compound metabolized” in [3]; “Compound NOT metabolized” in series [4]; “Compound NOT metabolized” in [5]; “Compound metabolized” in [6]. In addition, the “Bacterial Biotransformation” value in [7] is “Compound metabolized”; in series [8], “Compound metabolized”; in [9] it was “Compound metabolized”; in [10] it was “Compound NOT metabolized”; in series [11], “Compound NOT metabolized”; in series [12], “Compound NOT metabolized”.

In the case of `N#Cc1ccc2c(c1)N(CCCN1CCC(O)CC1)c1ccccc1S2` [PERICIAZINE], the “Bacterial Biotransformation” value in series [1] was “Compound NOT metabolized”; in series [2], “Compound metabolized”; in series [3] it was “Compound metabolized”; in [4] it was “Compound NOT metabolized”; in [5] it was “Compound metabolized”; in series [6] it was “Compound metabolized”. The “Bacterial Biotransformation” value is listed as “Compound metabolized” in series [7]; “Compound metabolized” in series [8]; “Compound metabolized” in series [9]; “Compound NOT metabolized” in series [10]; “Compound metabolized” in series [11]; “Compound NOT metabolized” in series [12].

Consider `COCCCC/C(=N\OCCN)c1ccc(C(F)(F)F)cc1.O=C(O)/C=C\C(=O)O` [FLUVOXAMINE MALEATE], for which the “Bacterial Biotransformation” value in [1] was “Compound NOT metabolized”; in series [2], “Compound metabolized”; in [3], “Compound NOT metabolized”; in series [4] it was “Compound NOT metabolized”; in [5] it was “Compound NOT metabolized”; in series [6], “Compound NOT metabolized”. Moreover, the “Bacterial Biotransformation” value in [7], in [8], in [9], in series [10], in series [11] and in series [12] was “Compound NOT metabolized” throughout.

As to `O=C([O-])C[C@H](O)C[C@H](O)/C=C/c1c(C2CC2)nc2ccccc2c1-c1ccc(F)cc1.O=C([O-])C[C@H](O)C[C@H](O)/C=C/c1c(C2CC2)nc2ccccc2c1-c1ccc(F)cc1.[Ca+2]` [PITAVASTATIN CALCIUM], the “Bacterial Biotransformation” value in [1] is listed as “Compound NOT metabolized”; in series [2], “Compound NOT metabolized”; in series [3], “Compound metabolized”; in series [4] it was “Compound metabolized”; in series [5], “Compound metabolized”; in series [6], “Compound metabolized”. Besides, the “Bacterial Biotransformation” value in series [7] is on record as “Compound NOT metabolized”; in series [8] it was “Compound metabolized”; in series [9], “Compound metabolized”; in series [10], “Compound metabolized”; in [11] it was “Compound metabolized”; in series [12], “Compound metabolized”.

Regarding `CCCCC(=O)O[C@]1(C(=O)CO)[C@@H](C)C[C@H]2[C@@H]3CCC4=CC(=O)C=C[C@]4(C)[C@@]3(F)[C@@H](O)C[C@@]21C` [BETAMETHASONE VALERATE], the “Bacterial Biotransformation” value in series [1] is listed as “Compound NOT metabolized”; in [2], “Compound metabolized”; in series [3], “Compound metabolized”; in series [4] it was “Compound metabolized”; in series [5], “Compound metabolized”; in [6], “Compound metabolized”. Further, the “Bacterial Biotransformation” value in series [7], in series [8], in series [9], in [10], in series [11] and in [12] was “Compound metabolized” throughout.

For the molecule `CN(C)CCc1c[nH]c2ccc(CS(=O)(=O)N3CCCC3)cc12` [ALMOTRIPTAN], the “Bacterial Biotransformation” value in [1] is on record as “Compound NOT metabolized”; in series [2] it was “Compound metabolized”; in series [3], “Compound metabolized”; in series [4], “Compound NOT metabolized”; in [5] it was “Compound NOT metabolized”; in [6], “Compound NOT metabolized”. In addition, the “Bacterial Biotransformation” value in series [7] is reported as “Compound metabolized”; in [8] it was “Compound metabolized”; in series [9] it was “Compound NOT metabolized”; in [10], “Compound NOT metabolized”; in series [11], “Compound NOT metabolized”; in series [12], “Compound NOT metabolized”.

Take `CN1CCN(C2=Nc3ccccc3Oc3ccc(Cl)cc32)CC1.O=C(O)CCC(=O)O` [LOXAPINE SUCCINATE]: the “Bacterial Biotransformation” value in series [1], in series [2], in series [3], in series [4], in series [5] and in series [6] was “Compound NOT metabolized” in each case. Besides, the “Bacterial Biotransformation” value in series [7], in series [8], in [9], in series [10], in [11] and in [12] was “Compound NOT metabolized” each time.

Consider `CC(=O)Oc1ccc(C(c2ccc(OC(C)=O)cc2)c2ccccn2)cc1` [BISACODYL], for which the “Bacterial Biotransformation” value in series [1], in series [2], in series [3], in series [4], in series [5] and in series [6] was “Compound metabolized” in each case. The “Bacterial Biotransformation” value in series [7], in series [8], in series [9], in [10], in series [11] and in [12] was “Compound metabolized” in each case. In addition, the “Bacterial Biotransformation” value in series [13] is reported as “Compound metabolized”.
